# According to a melting point compilation (Tetko et al.; mined from patent text by program, amines drawn as free bases though some values may be those of a salt):
row,Structure (SMILES),melting point [°C]
1,CN(C1=CC(C)(C)Oc2ccc(OCCCC(F)(F)F)cc21)S(C)(=O)=O,118
2,O=C(Nc1ccc(CN2C(=O)C3CCCC3N(C(=O)CN3C(=O)c4ccccc4C3=O)c3ccccc32)cc1)Oc1ccccc1 (stereo unspecified),185 to 187
3,CCN(Cc1ccccc1)C(=O)Cc1c(-c2ccc(OC)cc2)nc2cc(C)ccn12,175 to 178
4,Cc1cc(C)c2cc3c(cc2n1)C(NCCc1ccccc1)C(O)C(C)(C)O3 (stereo unspecified),144 to 147
5,O=C(O)c1cnc(-c2nnn[nH]2)cc1C1CCCCC1,278
6,Cn1c(-c2ccccc2)c(C2=CCC(C(=O)O)CC2)c2ccccc21 (stereo unspecified),171 to 172
7,NC(=O)N[C@@H]1CCC[C@@H](O)c2sccc21 (relative stereo),169 to 172
8,COc1ccc(NC(=O)c2ccccc2OC)cc1,49.5 to 51.2
9,Cc1ccnc(Sc2cnc(N)s2)n1,158 to 159
10,Cc1oc(-c2ccccc2)nc1COc1ccc(/C=C/CO)cn1,116 to 117
11,CCCCc1nc2c(N)nc(C)c(C)c2n1CC(C)(C)NC(=O)NC1CCCCC1,128 to 130
12,O=C(O)C1=Cc2cc(Cl)cc(F)c2OC1C(F)(F)F (stereo unspecified),191 to 193
13,CCOc1c(C(=O)c2ccccc2)cnc2[nH]ncc12,195 to 197
14,OCCOc1cccc(-n2ccnc2)c1,81 to 83
15,O=C(C[C@@H](CCCC1CCCCC1)c1nc(CNC2CCCCC2)no1)NO,127
16,Clc1ccc(OC2CCC3(CCNCC3)CC2)cc1,140 to 142
17,CCCCS(=O)(=O)Nc1cccc(COc2cccc3cccnc23)c1,136 to 137
18,CCn1ncc2c1ncc1c(OCCN(C)C)nc3ncnn3c12,149 to 150
19,O=C1CCC(c2c(-c3ccccc3)nn3ccccc23)=NN1,187 to 189
20,Cc1c(OCc2ccccc2)ccc2c(O)c(C(=O)Nc3cccc(F)c3)c(=O)oc12,220
21,CC(C)(C)OC(=O)NC(CNC(=O)Nc1ccccc1)C(=O)OCc1ccccc1 (stereo unspecified),48 to 50
22,COc1cc(CI)ccc1C12CC3CC(CC(C3)C1)C2,143 to 144
23,COc1ccc(C=C(C#N)c2c[nH]c3ccccc23)cc1OC,139 to 141
24,Cc1ccccc1N1CCc2cnc3c(C)cccc3c21,109 to 110

row,Structure (SMILES),melting point [°C]
1,O=C(O)C(=O)c1ccc(OCC(=O)N2CCN(c3ccccc3)CC2)cc1,188 to 192
2,O=C1NC(=O)C(Cc2ccc(OCCN3c4ccccc4Oc4ccccc43)cc2)S1 (stereo unspecified),170 to 172
3,CC(C)OC(=O)c1cc(F)c(Cl)cc1Cl,35
4,CN1C[C@H](c2cnccn2)OC1=O,114
5,COC(=O)N[C@H](C(=O)NC(Cc1ccccc1)C(O)CNCC(O)[C@@H](Cc1ccc(OCCc2ccccn2)cc1)NC(=O)OC(C)(C)C)C(C)(C)C (relative stereo),139 to 141
6,CCOC(=O)Cc1ccc(NC(=O)c2cc(C(C)C)c(C(C)C)o2)cc1,91.5 to 92.5
7,Nc1ncnc2c1nc(Sc1cc3c(cc1Br)OCO3)n2CCCCCC(=O)NO,160 to 169
8,"CC(N=Cc1ccc(O)cc1)c1ccccc1 (single isomer, unassigned; (-))",176 to 178
9,O=[N+]([O-])c1ccc(O)c(CSCC(O)CO)c1 (stereo unspecified),130
10,CNc1nc(Nc2ccc(Cl)c(Cl)c2)ncc1NS(=O)(=O)Cc1ccccc1,233 to 235
11,NS(=O)(=O)Oc1cccc(F)c1,53 to 55
12,CCCn1c(=O)cc(Cl)n(Cc2ccc(-c3ccccc3C#N)cc2)c1=O,146 to 147
13,CC1(C)c2ccc(C(O)CN3CCN(c4nsc5ccccc45)CC3)cc2C(C)(C)C1O (stereo unspecified),88 to 97
14,CCCn1ncc2c(=O)[nH]c(-c3cc(Br)ccc3OCC)nc21,172 to 173
15,CCOC(=O)c1cc2c(cn1)[nH]c1cccc(C=O)c12,273 to 276
16,COc1ccc(C(=O)NCCCCCNC(=O)c2ccc(OC)cc2)cc1,160 to 161
17,Cc1cc(Br)c2c(c1)C(=O)C(=O)N2CCN(C(C)C)C(C)C,94 to 97
18,CC(C)(C)OC(=O)N1CCCC(Nc2cc(-c3ccc(F)c(NC(=O)c4cnc(C(C)(C)C)cn4)c3)n[nH]c2=O)C1 (stereo unspecified),120 to 121
19,CCNS(=O)(=O)CC(=O)C=C(C)N,112 to 114
20,CNC(=O)c1cnn(-c2ccc(Cl)cc2Cl)c1C(F)(F)F,143 to 144
21,CCc1nnc(Cc2ccc(NC(=O)/C=C/c3cnn(C)c3-c3ccc(F)cc3)cc2)o1,164 to 165
22,CC(=O)Nc1ccc(N2CCN(Cc3ncc(-c4ccccc4)o3)CC2)cc1,196 to 197
23,CCOC(=O)N1CCN(c2ccc3nc4[nH]c(=O)[nH]c4cc3c2)CC1,> 300
24,N#Cc1c(I)c(C(=O)Cl)c(I)c(C(=O)NCC(O)CO)c1I (stereo unspecified),285 to 288

row,Structure (SMILES),melting point [°C]
1,Cc1nn(C)c2nc(N(CC3CC3)C(=O)C3CC3)c(CN(Cc3cc(C(F)(F)F)cc(C(F)(F)F)c3)c3nnn(C)n3)cc12,120 to 122
2,O=C(O)CN1C(=O)C(=Cc2c3ccccc3cc3ccccc23)SC1=S,277 to 279
3,O=S(=O)(NCCCCCCCCCCCCBr)c1ccc(Cl)cc1,70 to 73
4,O=CC1=C(Cl)C(=CO)CCC1,127
5,CCCN1C(=O)N(CCC)C(=O)C2(CC=C3C(CCC4=Cc5c(cnn5-c5ccc(F)cc5)CC43C)O2)C1=O (stereo unspecified),81 to 82
6,CCCCCC(=O)CCC(=O)O,67 to 68
7,CC[C@H](C1CC1)n1cc(Cl)nc(N2CCc3cc(OC)cc(C)c32)c1=O,156 to 158
8,NC(=O)c1ccc(-c2cc3cc(C4=NNC(=O)CC4)ccc3[nH]2)cc1,> 300
9,CCCCCCCCCCCCCCCCC(=O)Nc1ccc(O)cc1,137
10,CCOC(=O)c1nnc(Cc2c(F)cccc2F)n1C,127 to 128
11,CCN(CC(C)C)c1c(C(O)C#Cc2ccc(C(=O)O)cc2)cccc1C(C)(C)C (stereo unspecified),117
12,O=C1C(=O)c2ccccc2C2=C1SCC1(CCC(O)CC1)O2 (stereo unspecified),166 to 168
13,CCN(CC)CC1CCCCN1CCNC(=O)N1c2cc(Cl)ccc2C(=O)Nc2cccnc21 (stereo unspecified),169 to 170
14,CCCCCC(=O)c1c(C)nc2cc(OC)c(OC)cc2c1-c1ccc(OC)c(OC)c1,123 to 125
15,CC1(C)Oc2ccc(CNc3ccc(Cl)cc3)cc2OC1=O,97 to 98
16,O=[N+]([O-])c1ccc(N2CCN(CCO)CC2)cc1,98 to 99
17,COc1ccc(Cc2ccc3c(c2)OCO3)c(OC)c1,51
18,O=C1C[C@@H]2[C@@H](/C=C/[C@H](CCc3ccccc3)OC3CCCCO3)[C@H](OC(=O)c3ccc(-c4ccccc4)cc3)C[C@@H]2O1 (stereo partly specified),118 to 119
19,CC12C=CC(=O)CC1CCC1C2CCC2(C)C(C(=O)NC3(C#N)CCCC3)CCC12 (stereo unspecified),262 to 269
20,Nc1n[nH]c2c1c1cc(Cl)c(Cl)cc1n2C1OC(CO)C(O)C1O (stereo unspecified),198 to 201
21,CC(=O)NC1C(OCc2ccccc2)OC(COCc2ccccc2)C(OCc2ccccc2)C1OCC(=O)O (stereo unspecified),128 to 129
22,O=C(O)Cc1cccc(OCCCCc2cc(-c3ccc(C(F)(F)F)cc3)no2)c1,134 to 135
23,Cc1cc(SC2=C(O)CC(CCc3cc(Cl)c(N)c(Cl)c3)(C(C)C)OC2=O)c(C(C)(C)C)cc1N (stereo unspecified),103 to 107
